From publication PMC7076710, “Synthesis, Identification, and Structure–Activity Relationship Analysis of GATA4 and NKX2-5 Protein–Protein Interaction Modulators” (Journal of Medicinal Chemistry, 2019)
Where two headings read alike, the source gives them in different places.

How the values were obtained:
Format in all cases: cell-based
[1] = target: T1, NKX2-5 transcriptional activity (Mus musculus, UniProt P42582); assay: NKX2-5 luciferase reporter assay (3xNKE reporter, COS-1 cells); conditions: COS-1; for activity at 3 µM: read-out: NKX.3µM; for activity at 10 µM: read-out: NKX.10µM
T1 construct: expressed in transfected cells; host or cells: COS-1
T1 sequence (P42582 whole entry): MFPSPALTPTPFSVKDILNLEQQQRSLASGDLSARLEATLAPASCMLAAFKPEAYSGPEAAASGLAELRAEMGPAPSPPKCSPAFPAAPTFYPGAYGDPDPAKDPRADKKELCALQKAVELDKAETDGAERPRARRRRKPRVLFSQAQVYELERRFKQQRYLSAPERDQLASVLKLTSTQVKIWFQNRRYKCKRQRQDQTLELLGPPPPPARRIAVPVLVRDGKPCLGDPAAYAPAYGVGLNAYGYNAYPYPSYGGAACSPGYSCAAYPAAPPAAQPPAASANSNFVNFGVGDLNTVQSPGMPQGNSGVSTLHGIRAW

[2] = target: T2, GATA4 transcriptional activity (Mus musculus, UniProt Q08369); assay: GATA4 luciferase reporter assay (tandem GATA-site reporter, COS-1 cells); conditions: for activity at 3 µM / activity at 10 µM: COS-1
T2 construct: expressed in transfected cells; host or cells: COS-1
T2 sequence (Q08369 whole entry): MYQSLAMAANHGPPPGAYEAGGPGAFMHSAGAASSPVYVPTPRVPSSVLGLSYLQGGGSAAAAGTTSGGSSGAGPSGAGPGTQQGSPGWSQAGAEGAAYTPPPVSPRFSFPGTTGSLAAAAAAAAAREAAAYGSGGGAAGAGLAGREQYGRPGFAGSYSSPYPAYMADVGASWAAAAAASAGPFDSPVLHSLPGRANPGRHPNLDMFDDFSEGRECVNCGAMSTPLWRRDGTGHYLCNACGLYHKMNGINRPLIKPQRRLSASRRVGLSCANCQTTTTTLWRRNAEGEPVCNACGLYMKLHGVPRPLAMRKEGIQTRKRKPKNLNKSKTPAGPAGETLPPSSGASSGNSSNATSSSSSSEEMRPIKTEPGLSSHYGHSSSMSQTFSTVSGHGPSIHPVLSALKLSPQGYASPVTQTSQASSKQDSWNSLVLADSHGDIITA

[3] = system: COS-1 cells; assay: LDH assay (necrosis)
Text: (§1) To investigate the toxicity as a potential cause of decreased or increased activity in luciferase reporter gene assays, we tested a set of 40 active compounds in the COS-1 cell line used for the luciferase assays. Concentration-dependent toxic effects were investigated using the lactate dehydrogenase (LDH) assay to detect necrosis and the 3-(4,5-dimethylthiazol-2-yl)-2,5-diphenyltetrazolium bromide (MTT) assay as a measure of cell viability. […] For the data analysis, compounds were classified as toxic (Figures 5 and 7) if they induced a >10% decrease in cell viability in the MTT assay at the concentration of 10 μM. The most toxic compounds (35a, 35d, 54, 58, and 63–65) in the MTT assay all contained a phenyl substituent in the southern part ring, while the ortho-nitrophenyl-derivative 39g and the phenyl-substituted thiophene 47t were nontoxic. Higher flexibility in the central parts of the ethers (35a, 35d) and N-acylated amines (58, 64) might contribute to their toxicity, because less rigid compounds are more likely to have affinity to various biological targets. Such interactions can cause toxicity. To confirm and validate the results from MTT assays, we tested three nontoxic (2, 47s, and 72) and three toxic (1, 35a, and 58) compounds in a cell viability assay measuring intracellular ATP content.
(§2) Figure 5 Effects of selected compounds on COS-1 cell viability. (A) Compound-induced necrosis was quantified with the LDH assay after a 24-h compound exposure. The data are presented as cytotoxicity percentage (% of maximal LDH release). (B) Cell viability was analyzed with the MTT assay after a 24-h compound exposure. (A,B) The data are means from 2–3 independent experiments with 3 replicate wells in each and are presented as % of control (vehicle-treated cells). The compounds have been grouped on the basis of the structure of the central part: a, amide; b, ether; c, N-acylated amine; d, amine; and e, imine. (C) The effects of selected compounds on cell viability as determined by ATP content after a 24-h compound exposure. The data are mean + SEM from three independent experiments and are presented as % of vehicle-treated cells.
(§3) For toxicity screening, COS-1 cells were cultured in DMEM (Sigma-Aldrich, Steinheim, Germany) supplemented with 10% fetal bovine serum, 100 U/mL penicillin, and 100 μg/mL streptomycin (all from Gibco, Thermo Scientific) at 37 °C with 5% CO2. The cells were plated on 96-well plates at 10 000 cells/well and exposed to test compounds at a concentration range of 1–30 μM on the following day. After a 24-h compound treatment, lactate dehydrogenase (LDH) and 3-(4,5-dimethylthiazol-2-yl)-2,5-diphenyltetrazolium bromide (MTT) assays were carried out as described previously.[48] Briefly, LDH activity was determined from 50 μL samples of cell culture medium, to which 50 μL of substrate solution [1.3 mM β-nicotinamide-adenine dinucleotide, 660 μM iodonitrotetrazolium, 54 mM L(+)-lactic acid, and 280 μM phenazine methosulfate in 0.2 M Tris-HCl, pH 8.2, all from Sigma-Aldrich] was added, and the plate was incubated for 30 min at room temperature. The reaction was stopped with acetic acid (final concentration 333 mM), and absorbance was measured at 490 nm. The absorbance values of the samples were normalized to maximal LDH release and spontaneous LDH release determined on the same plate. Mitochondrial metabolic activity was quantified by incubating the cells with 0.5 mg/mL MTT (from Sigma-Aldrich) for 2 h at 37 °C with 5% CO2, whereafter culture medium was removed and formazan crystals were dissolved in DMSO. The absorbance was measured at 550 nm, and absorbance at 650 nm was subtracted as background.

[4] = system: COS-1 cells; assay: MTT assay (cell viability); conditions: for MTT.1µM / MTT.3µM / MTT.10µM / MTT.30µM: cell viability; for toxicity class in the MTT assay: 24-h exposure, classified at 10 μM
Text: as §1, §2, §3

[5] = target: T3, GATA4–NKX2-5 transcriptional synergy (Mus musculus, UniProt P42582+Q08369); assay: GATA4–NKX2-5 transcriptional synergy luciferase reporter assay (3xNKE reporter, COS-1 cells); conditions: COS-1
T3 construct: expressed in transfected cells; host or cells: COS-1
T3 sequence (Q08369 whole entry): as above
T3 sequence (P42582 whole entry): as the sequence (P42582 whole entry) above

[6] = luciferase reporter activity relative to control
[7] = luciferase reporter activity, % of control

SMILES | activity at 3 µM [1, 6] | activity at 3 µM [2, 6] | activity at 3 µM [5, 6] | LDH.1µM [3] | LDH.3µM [3] | LDH.10µM [3] | LDH.30µM [3] | MTT.1µM [4] | MTT.3µM [4] | MTT.10µM [4] | MTT.30µM [4] | also measured
CCN(CC)c1ccc(NC(=O)c2c(-c3ccc(F)cc3)noc2C)cc1 [Compound 39d, N-[4-(Diethylamino)phenyl]-3-(4-fluorophenyl)-5-methylisoxazole-4-carboxamide] |  |  |  |  |  |  |  |  |  |  |  | activity at 3 µM [1, 7]: 73.3%; activity at 3 µM [2, 7]: 94.4%; LDH.1µM ([3]; COS-1 cells): 3.12; LDH.3µM ([3]; COS-1 cells): -0.19; LDH.10µM ([3]; COS-1 cells): -0.49; LDH.30µM ([3]; COS-1 cells): 2.51; MTT.1µM ([4]; COS-1 cells): 99.41%; MTT.3µM ([4]; COS-1 cells): 97.69%; MTT.10µM ([4]; COS-1 cells): 91.72%; MTT.30µM ([4]; COS-1 cells): 87.25%; activity at 3 µM [5, 7]: 61.4%
CCN(CC)c1ccc(NC(=O)c2cc(C)oc2-c2ccccc2)cc1 [Compound 54] | 60.8% | 72.4% | 46% | 1.02 | 0.88 | -0.26 | 3.27 | 97.73 | 83.61 | 74.16 | 71.09 | toxicity class in the MTT assay [4]: most toxic; activity at 10 µM [5, 6]: 35.4%
CCN(c1ccc(NC(=O)c2c(C)noc2-c2ccccc2)cc1)C(C)C [Compound 63] | 69.7% | 68% | 41.6% | 0.04 | -1.53 | -2.08 | 0.01 | 99.16 | 82.83 | 75.83 | 61.58 | 
CC(=O)N(Cc1ccc(N(C)C)cc1)c1c(-c2ccccc2)noc1C [Compound 64] | 62.1% | 59.6% | 40.2% | 0.55 | -0.52 | -0.2 | -0.49 | 98.18 | 84.51 | 77.4 | 65.98 | activity at 10 µM [1, 6]: 44.1%
CCN(CC)c1ccc(NC(=O)c2c(C)noc2-c2ccccc2)cc1 [Compound 65] | 53.5% | 90% | 51.9% | 0.39 | -0.82 | -1.85 | -0.07 | 96.79 | 83.46 | 81.39 | 84.64 | activity at 10 µM [2, 6]: 64.2%
CCN(CC)c1ccc(NC(=O)c2c(-c3ccccc3)nnn2CCc2ccccc2)cc1 [Compound 71] | 76% | 72.5% | 75.2% | 0.03 | -0.62 | -0.76 | 1.31 | 103.27 | 98.93 | 94.48 | 80.74 | activity at 10 µM [1, 6]: 33.6%; activity at 10 µM [5, 6]: 33%

Continued, in another order:

activity at 3 µM [1, 6] | activity at 3 µM [2, 6] | activity at 3 µM [5, 6] | SMILES | LDH.1µM [3] | LDH.3µM [3] | LDH.10µM [3] | LDH.30µM [3] | MTT.1µM [4] | MTT.3µM [4] | MTT.10µM [4] | MTT.30µM [4] | also measured
56.8% | 65.3% | 51.3% | CC(=O)COC(=O)c1ccc(OCc2c(-c3ccccc3)noc2C)cc1 [Compound 35d] | -0.61 | -0.5 | -0.15 | -0.05 | 81.99 | 73.26 | 64.91 | 61.12 | toxicity class in the MTT assay [4]: most toxic
100% | 94% | 81.1% | CCN(CC)c1ccc(NC(=O)c2c(-c3ccncc3)noc2C)cc1 [Compound 39c] | 0.58 | 0.49 | -0.99 | -0.68 | 105.77 | 106.28 | 90.58 | 90.91 | 
122% | 103% | 87.2% | CCN(CC)c1ccc(NC(=O)c2c(-c3ccsc3)noc2C)cc1 [Compound 39m] | -0.35 | 0.79 | -1.72 | -1.23 | 102.49 | 98.85 | 88.28 | 82.62 | 
112% | 108% | 101% | CCN(CC)c1ccc(NC(=O)c2cnc3ncccn23)cc1 [Compound 47aa] | 1.59 | 1 | 1.6 | -0.51 | 101.8 | 103.86 | 99.76 | 95.63 | activity at 10 µM [1, 6]: 118%; GATA4 (% of control) Mean ± SD ([2]; 10 μM, COS-1 cells, 24 h): 130 % of control; activity at 10 µM [2, 6]: 132%; activity at 10 µM [5, 6]: 144%
56.3% | 95.2% | 65.4% | CCN(CC)c1ccc(NC(=O)c2cnoc2-c2ccccc2)cc1 [Compound 47d] | 3.03 | 0.88 | -0.44 | 0.42 | 107.01 | 95.86 | 90.87 | 93.95 | 
55.2% | 74.4% | 61.5% | CCN(CC)c1ccc(NC(=O)c2csc(C)c2-c2ccccc2)cc1 [Compound 47t] | 0.5 | 1.08 | 0.5 | 2.38 | 106.87 | 104.76 | 104.28 | 99.24 | toxicity class in the MTT assay [4]: nontoxic (nontoxic compounds (cell viability >90%))
37.8% | 28.7% | 32.3% | CCN(CC)c1ccc(NC(=O)c2csc([N+](=O)[O-])c2)cc1 [Compound 47u] | 7.78 | 6.19 | 2.98 | 1.83 | 105.56 | 102.26 | 97.2 | 88.36 | activity at 10 µM [5, 6]: 24.5%
91.1% | 91.4% | 67.6% | CCN(CC)c1ccc(NC(=O)c2cnc(SC)n2-c2ccc(F)cc2)cc1 [Compound 47z] | 0.94 | 1.33 | -0.3 | -0.25 | 102.53 | 95.99 | 96.05 | 93 | 
